Laboratory results from ChEMBL document CHEMBL1821572, “Discovery of a novel series of selective HCN1 blockers” (Bioorg Med Chem Lett, 2011).

Assays:
[1] = target: T1, Potassium/sodium hyperpolarization-activated cyclic nucleotide-gated channel 3 (Homo sapiens, UniProt Q9P1Z3); assay: Inhibition of human HCN3 heterologously expressed in HEK-293 cells after 30 mins by VIPR assay; type: cell-based, HEK293
T1 sequence (Q9P1Z3 whole entry): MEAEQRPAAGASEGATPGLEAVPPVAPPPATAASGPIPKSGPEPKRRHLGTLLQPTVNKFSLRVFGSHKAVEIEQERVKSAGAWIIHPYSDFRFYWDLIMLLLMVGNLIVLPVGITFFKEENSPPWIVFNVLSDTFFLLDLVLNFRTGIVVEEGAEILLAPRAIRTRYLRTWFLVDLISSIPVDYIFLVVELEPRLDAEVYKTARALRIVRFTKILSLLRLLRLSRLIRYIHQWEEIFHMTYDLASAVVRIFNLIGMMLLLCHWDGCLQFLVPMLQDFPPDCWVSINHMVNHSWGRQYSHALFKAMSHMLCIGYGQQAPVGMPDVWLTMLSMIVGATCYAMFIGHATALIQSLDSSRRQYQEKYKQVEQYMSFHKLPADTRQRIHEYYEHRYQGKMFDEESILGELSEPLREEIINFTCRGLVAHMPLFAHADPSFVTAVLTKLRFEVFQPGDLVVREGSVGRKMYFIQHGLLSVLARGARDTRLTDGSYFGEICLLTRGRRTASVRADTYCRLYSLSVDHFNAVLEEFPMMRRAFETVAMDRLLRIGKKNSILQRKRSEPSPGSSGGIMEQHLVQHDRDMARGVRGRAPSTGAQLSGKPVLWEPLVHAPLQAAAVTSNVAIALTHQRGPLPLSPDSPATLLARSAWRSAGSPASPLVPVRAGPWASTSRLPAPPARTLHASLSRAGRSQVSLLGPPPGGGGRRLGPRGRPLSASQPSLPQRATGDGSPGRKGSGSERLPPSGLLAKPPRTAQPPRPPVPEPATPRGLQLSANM

[2] = target: T2, Potassium/sodium hyperpolarization-activated cyclic nucleotide-gated channel 4 (Homo sapiens, UniProt Q9Y3Q4); assay: Inhibition of human HCN4 heterologously expressed in HEK-293 cells after 30 mins by VIPR assay; type: cell-based, HEK293
T2 sequence (Q9Y3Q4 whole entry): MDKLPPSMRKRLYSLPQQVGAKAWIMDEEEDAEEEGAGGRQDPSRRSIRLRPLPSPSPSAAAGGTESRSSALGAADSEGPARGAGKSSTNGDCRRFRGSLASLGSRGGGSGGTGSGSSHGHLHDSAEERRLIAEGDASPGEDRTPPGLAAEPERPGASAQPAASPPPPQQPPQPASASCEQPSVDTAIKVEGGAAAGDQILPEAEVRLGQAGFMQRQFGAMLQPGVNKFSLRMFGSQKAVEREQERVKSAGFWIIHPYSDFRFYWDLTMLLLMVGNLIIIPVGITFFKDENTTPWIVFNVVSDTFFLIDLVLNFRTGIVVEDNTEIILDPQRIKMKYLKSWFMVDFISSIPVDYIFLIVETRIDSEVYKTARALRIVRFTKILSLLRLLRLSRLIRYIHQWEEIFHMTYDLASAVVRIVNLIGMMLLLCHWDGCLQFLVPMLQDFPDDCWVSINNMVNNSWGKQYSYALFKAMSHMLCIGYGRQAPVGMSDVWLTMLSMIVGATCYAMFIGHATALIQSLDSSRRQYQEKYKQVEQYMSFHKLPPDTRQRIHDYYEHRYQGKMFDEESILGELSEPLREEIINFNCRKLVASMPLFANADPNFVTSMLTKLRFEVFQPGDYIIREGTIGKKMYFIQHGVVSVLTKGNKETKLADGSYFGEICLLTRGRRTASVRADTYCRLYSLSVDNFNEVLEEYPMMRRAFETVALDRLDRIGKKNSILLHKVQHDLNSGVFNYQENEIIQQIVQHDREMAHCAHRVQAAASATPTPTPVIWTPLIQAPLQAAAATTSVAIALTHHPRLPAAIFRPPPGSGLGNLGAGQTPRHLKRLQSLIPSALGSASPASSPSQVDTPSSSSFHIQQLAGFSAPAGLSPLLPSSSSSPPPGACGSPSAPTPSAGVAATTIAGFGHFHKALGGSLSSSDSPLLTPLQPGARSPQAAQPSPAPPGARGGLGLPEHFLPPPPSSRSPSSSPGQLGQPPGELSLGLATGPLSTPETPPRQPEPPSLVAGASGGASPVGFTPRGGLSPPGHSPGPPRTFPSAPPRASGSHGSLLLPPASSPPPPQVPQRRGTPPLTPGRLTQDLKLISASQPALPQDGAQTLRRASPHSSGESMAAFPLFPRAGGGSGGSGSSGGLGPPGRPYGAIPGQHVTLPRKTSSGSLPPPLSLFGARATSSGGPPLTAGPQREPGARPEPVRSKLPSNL

**Q.** Which IC50 [1] does the source give for CCOc1ccccc1C(=O)NCC1(N2CCNCC2)CCCCC1 here?
**A.** 3.16 µM

**Q.** And the IC50 [2]?
**A.** 3.98 µM
